According to US20100292345A1, “THERAPEUTIC USES OF CANNABIGEROL” (GW PHARMA LIMITED, priority 2007, published 2010):

Tests used:
[1] = target: T1, CB1 receptors in mouse brain tissue (Mus musculus, UniProt P47746); assay: [3H]CP55940 radioligand displacement assay, mouse whole brain membranes; assay type: binding
T1 construct: Whole mouse brain membranes were prepared as described by Thomas et al., 2004; from tissue; host or cells: whole mouse brain membranes
Method: (§1) Whole mouse brain membranes were prepared as described by Thomas et al., 2004. CHO cells were stably transfected with cDNA encoding human cannabinoid CB2 receptors and were maintained at 37° C. and 5% CO2 in Dulbecco's Modified Eagle's Medium nutrient mixture.
(§2) The assays were carried out with the established CB1 and CB2 cannabinoid receptor agonist CP55940. This was radiolabelled to form [^3H]CP55940.
(§3) Binding of the radiolabelled compound was initiated by the addition of either the brain membranes (33 μg protein per tube) or the transfected hCB2 cells (25 μg protein per tube).
(§4) All assays were performed at 37° C. for 60 min before termination by addition of ice-cold wash buffer (50 mM Tris buffer, 1 mg ml^−1 bovine serum albumin, pH 7.4) and vacuum filtration using a 24-well sampling manifold and GF/B filters that had been soaked in wash buffer at 4° C. for at least 24 h.
(§5) The test compounds were also tested to determine whether they were able to displace the agonist CP55940 from the binding site of the CB1 or CB2 receptor. The Ki-value that resulted from this investigation gives an insight into how strongly the test compound competes with the agonist for the binding site.

[2] = test system: CB1 receptors in mouse brain tissue; assay: [35S]GTPγS binding assay, mouse brain membranes; assay type: biochemical; conditions: conclusion from the example data
Method: as §1
The assays were carried out with GTPγS binding buffer (50 mM Tris-HCl; 50 mM Tris-Base; 5 mM MgCl2; 1 mM EDTA; 100 mM NaCl; 1 mM DTT; 0.1% BSA) in the presence of [^35S]GTPγS and GDP, in a final volume of 500 μl. Binding was initiated by the addition of [^35S]GTPγS to the tubes. The drugs were incubated in the assay for 60 min at 30° C. The reaction was terminated by a rapid vacuum filtration method using Tris buffer (50 mM Tris-HCl; 50 mM Tris-Base; 0.1% BSA), as described previously, and the radioactivity was quantified by liquid scintillation spectrometry.
The agonism of the CB1 or CB2 receptors by CP55940 results in a response in the cell. This response is the binding of [^35S]GTPγS to the cell membrane.
Changes in the response in the presence of the test compound can be measured in order to determine whether the compound is acting as an agonist, a neutral antagonist or an inverse agonist. An agonist will increase the response, a neutral antagonist will have no effect on the response and an inverse agonist will stop or reverse the response. […]

[3] = target: T2, human cannabinoid CB2 receptors (Homo sapiens, UniProt P34972); assay: [3H]CP55940 radioligand displacement assay, hCB2-CHO cell membranes; conditions: membranes prepared from hCB2-CHO cells; 37° C., 60 min; read-out: Ki, displacement of [3H]CP55940 from specific binding sites
T2 construct: expressed in transfected cells; host or cells: CHO cells, stably transfected
Method: as §1, §2, §3, §4, §5

[4] = target: T2, human cannabinoid CB2 receptors; assay: Inhibition of forskolin-stimulated cyclic AMP production in hCB2-CHO cells; assay type: cell-based; design: Emax, inhibition of forskolin-stimulated cyclic AMP production: unit not given here

T2 sequence (P34972 whole entry): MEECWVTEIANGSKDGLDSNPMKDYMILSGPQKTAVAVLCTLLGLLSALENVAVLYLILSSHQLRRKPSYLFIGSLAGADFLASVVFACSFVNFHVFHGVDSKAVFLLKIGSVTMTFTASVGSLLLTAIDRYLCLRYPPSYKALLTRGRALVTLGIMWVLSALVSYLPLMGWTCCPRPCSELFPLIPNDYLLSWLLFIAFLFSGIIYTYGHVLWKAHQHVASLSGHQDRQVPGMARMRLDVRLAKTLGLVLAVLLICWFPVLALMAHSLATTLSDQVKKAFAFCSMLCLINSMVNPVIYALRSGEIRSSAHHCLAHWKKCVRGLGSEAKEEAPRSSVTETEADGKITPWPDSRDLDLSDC
T1 sequence (P47746 whole entry): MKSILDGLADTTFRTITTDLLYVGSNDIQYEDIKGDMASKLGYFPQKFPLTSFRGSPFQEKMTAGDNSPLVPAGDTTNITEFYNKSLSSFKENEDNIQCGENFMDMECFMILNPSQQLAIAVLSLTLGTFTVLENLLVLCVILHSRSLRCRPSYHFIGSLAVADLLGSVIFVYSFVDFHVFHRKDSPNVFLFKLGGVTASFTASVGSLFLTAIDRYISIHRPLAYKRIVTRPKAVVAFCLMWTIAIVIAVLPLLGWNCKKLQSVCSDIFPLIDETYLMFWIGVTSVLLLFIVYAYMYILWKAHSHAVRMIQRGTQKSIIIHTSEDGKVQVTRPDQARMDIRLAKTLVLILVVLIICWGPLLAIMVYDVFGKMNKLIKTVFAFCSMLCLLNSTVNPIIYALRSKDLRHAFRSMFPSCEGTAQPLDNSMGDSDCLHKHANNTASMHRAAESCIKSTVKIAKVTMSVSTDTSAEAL

CCCCCc1cc(O)c(C/C=C(\C)CCC=C(C)C)c(O)c1 [CBG, cannabigerol]
Ki [1]: 439 nM
functional character at CB1 receptor [2]: partial agonist
Ki [3]: 337 nM
functional character at CB2 receptor ([4]; conclusion from the example data): partial agonist
EC50 ([4]; hCB2-CHO cells, 5 μM forskolin): 388 nM
Emax, inhibition of forskolin-stimulated cyclic AMP production ([4]; hCB2-CHO cells, 5 μM forskolin): 28.3
efficacy relative to CP55940 in inhibiting forskolin-stimulated cyclic AMP production ([4]; hCB2-CHO cells, 5 μM forskolin, submicromolar concentrations): efficacy less than that of CP55940
